Assay results as given in PubChem BioAssay (NCI).
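Each compound was tested at five concentrations against cells in 96-well plates for 48 hours. TGI: concentration producing complete growth inhibition.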

Columns and labels:
Assay in all cases: NCI tumour cell line growth inhibition, 48 h
SR leukemia = system: SR leukemia
BT-549 breast = system: BT-549 breast
M19-MEL melanoma = system: M19-MEL melanoma
HOP-18 NSCLC = system: HOP-18 NSCLC
KM20L2 colon = system: KM20L2 colon
P388 leukemia = system: P388 leukemia
HCT-116 colon = system: HCT-116 colon
SN12K1 renal = system: SN12K1 renal
P388/ADR leukemia = system: P388/ADR leukemia
LXFL 529 NSCLC = system: LXFL 529 NSCLC

SMILES	TGI (SR leukemia) [µM]	TGI (BT-549 breast) [µM]	TGI (M19-MEL melanoma) [µM]	TGI (HOP-18 NSCLC) [µM]	TGI (KM20L2 colon) [µM]	TGI (P388 leukemia) [µM]	TGI (HCT-116 colon) [µM]	TGI (SN12K1 renal) [µM]	TGI (P388/ADR leukemia) [µM]	TGI (LXFL 529 NSCLC) [µM]
Cc1cc(C)nc(NS(=O)(=O)c2ccc(Nc3c4ccccc4nc4c(C(=O)NCCCN(CCO)CCO)cccc34)cc2)n1	> 100	27.6								
COc1nc(SC)nc2c1cnn2C1OC(C(O)CO)C(OC)C1O (stereo not drawn)			> 100	> 100	> 100	> 100	> 100	> 84	> 100	
Cc1[nH]c(=O)nc(N/N=C/c2ccc(Cl)cc2)c1C(=O)NC(C)(CO)CO	> 100	> 100					> 100			
COc1cc(C2C(Cl)C(=O)N2NC(=O)c2ccccc2O)ccc1O (stereo not drawn)			> 100	> 100			> 100			> 100
CC1(C23CC4CC(CC(C4)C2)C3)n2c(=O)n(-c3ccccc3)c(=O)n2C1(C)C12CC3CC(CC(C3)C1)C2 (stereo not drawn)	> 100	> 100								
CCOC(=O)c1csc(NC(=O)CCN2CCCCC2)n1	> 100									
CCCCC(C)C1CCC2(C)C=CC(=O)C(C)=C2C1O (stereo not drawn)			> 100	> 100	> 100	> 100	> 100	> 100	> 100	
CON(C)C(C#N)=C(C#N)C#N	> 10						> 10			
